≈ marks a conversion by molar mass, not a printed value.
How the values were obtained:
[1] = test system: resistant strain EY1 [抗性菌EY1]; assay: Minimum inhibitory concentration, resistant strain EY1; format: cell-based; conditions: serial dilution, 96-well plate, broth
[2] = test system: sensitive strain MG1655 [敏感菌株MG1655]; assay: Minimum inhibitory concentration, sensitive strain MG1655; format: cell-based; conditions: Escherichia coli, serial dilution, 96-well plate, broth
MG1655 [3] = assay: Rate of generation of drug-tolerant bacteria (viable count); format: cell-based, Escherichia coli; conditions: cultures of 3 to 9 h; gentamicin 60 mg/L and kanamycin 40 mg/L 5 h, then various tryptophan concentrations 30 min; concentration-dependent; printed as up to (可达)
[4] = test system: Escherichia coli MG1655 [大肠杆菌MG1655]; assay: Bactericidal effect of antibiotic with or without tryptophan (viable count); format: cell-based
MG1655 [5] = assay: Intracellular reactive oxygen species (H2DCFDA); format: cell-based, Escherichia coli; conditions: log and stationary phase; 60 mg/L gentamicin alone or with 5 mM tryptophan, 1 h
MG1655 [6] = assay: Uptake of Texas Red-labelled gentamicin (flow cytometry); format: cell-based, Escherichia coli; conditions: log and stationary phase, 0, 1, 5, 10 mM tryptophan
[7] = test system: MG1655 drug-tolerant bacteria [耐药菌]; assay: Killing of drug-tolerant bacteria (viable count); format: cell-based, Escherichia coli; conditions: after gentamicin 60 mg/L or kanamycin 40 mg/L 5 h; then antibiotic + 5 mM tryptophan 5 h; printed as can reach (可以达到)

## NC[C@H]1O[C@H](O[C@H]2[C@H](O)[C@@H](O[C@H]3O[C@H](CO)[C@@H](O)[C@H](N)[C@H]3O)[C@H](N)C[C@@H]2N)[C@H](O)[C@@H](O)[C@@H]1O [卡那霉素]
[1]
  MIC: 220 µg/mL (≈ 454 µM)
[2]
  MIC: 3.5 µg/mL (≈ 7.22 µM)

## N[C@@H](Cc1c[nH]c2ccccc12)C(=O)O [色氨酸]
MG1655 [3]
  reduction of generation of drug-tolerant bacteria: 10-1000 fold
[4]; 5 mM tryptophan with gentamicin 3 mg/L and MIC 4 mg/L, 24 h, logarithmic phase
  increase of bactericidal effect versus group without tryptophan: 100 fold
[4]; 5 mM tryptophan with kanamycin 1.5 mg/L to MIC 3.5 mg/L, 24 h, logarithmic phase
  increase of bactericidal effect: 10-100 fold
[4]; stationary phase MG1655, 5 mM tryptophan with gentamicin 60 mg/L or kanamycin 40 mg/L, 1 h per figure legend, 24 h per example
  increase of bactericidal efficiency: ~10 fold
MG1655 [5]
  intracellular reactive oxygen species level: 能够提高胞内活性氧的水平
MG1655 [6]
  bacterial uptake of antibiotic: 能够提升细菌对于抗生素的吸收,并呈现剂量依赖性
[7]
  bactericidal efficiency against drug-tolerant bacteria: 80-90%
